From patent US10440955B2, “Methods comprising a biocidal polyamine” (Curza Global, LLC, priority 2013, dated 2019)
In brackets after ≈: the same amount, converted by molar mass. Values belong to the compound of their own block, whether it stands above or below them.

What was measured:
P. aeruginosa biofilms [1] = test: EBEC, high number biofilms on PEEK membranes, 10^9 to 10^2 CFU/PEEK membrane in 24 hours; format: cell-based; settings: Pseudomonas aeruginosa; Table 3B c3; group head missing; read-out: MICs (μg/mL) II: P. aeruginosa
Protocol: In addition to determining the MIC and the MBEC of polyamine compounds against planktonic bacteria and low number biofilms, our group wanted to determine the efficacy of polyamine compounds against high number biofilms. To do so, biofilms were grown on the surface of polyetheretherketone (PEEK) membranes using a membrane biofilm reactor. This reactor is similar to the CDC biofilm reactor, but rather than growing biofilms on coupon surfaces, the reactor was modified to hold PEEK membranes. In short, to grow biofilms within this system, 500 mL of brain heart infusion (BHI) broth were inoculated with 1 mL of a 0.5 McFarland. The reactor was placed on a hot plate set at 34° C. and the bacteria were grown under batch conditions for 24 hours. Following this protocol, biofilms typically grow to 10^9 CFU/PEEK membrane. […] A solution of 10% BHI was then flowed through the reactor at a rate of 6.94 mL/min for an additional 24 hours. PEEK membranes were then removed and placed into 2 mL of CAMHB that contained a desired concentration of polyamine compound or antibiotic. The EBEC was defined as the concentration of antimicrobial required to reduce a biofilm from approximately 10^9 CFU/PEEK membrane to approximately 10^2 CFU/PEEK membrane in a 24-hour period.

P. aeruginosa = test: MIC, 96-well CAMHB, 10^5 to 10^2 CFU/mL in 24 hours; format: cell-based, Pseudomonas aeruginosa; settings: Pseudomonas aeruginosa; Table 3A c2; read-out: MICs (μg/mL): P. aeruginosa
Procedure, shortened: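 Broth microdilution in CAMHB with about 5×10^5 CFU/mL inoculum, incubated 24 h at 37 °C with graded polyamine compound concentrations. Surviving CFU/mL determined by plating each well on TSA for 24 h at 37 °C; n=8 per concentration.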

P. aeruginosa biofilms [2] = test: MBEC, MBEC Inoculation Tray (Innovotech), to 10^2 CFU/peg in 24 hours; format: cell-based; settings: Pseudomonas aeruginosa; Table 3A c5; group head missing, probably MBEC; read-out: MICs (μg/mL): P. aeruginosa (second P. aeruginosa)
Excerpt: To determine the MBEC of each polyamine compound, the MBEC Inoculation Tray by Innovotech, formerly known as the Calgary biofilm device, was used. Within this device, biofilms grow on the surface of polystyrene pegs, 96 of which are attached to a lid. These pegs are inserted into a flat bottom 96-well plate. In this instance, the MBEC of a molecule was defined as the concentration of compound (in μg/mL) required to reduce 10^5 or 10^6 CFU/peg (biofilm levels varied by isolate) to 10^2 CFU/peg in a 24-hour period.
Following the manufacturer's guidelines, biofilms were grown on the surface of each peg by first making a 0.5 McFarland of each isolate. The 0.5 McFarland was diluted 1:100 in CAMHB. Into each well of a flat bottom 96-well plate, 150 μL of broth were pipetted. The plate was shaken at 100 rpm for 24 hours (P. aeruginosa and A. baumannii) or 48 hours (MRSA). The pegs were then placed into a separate flat bottom 96-well plate for 10 seconds with 200 μL of phosphate buffered saline (PBS) in each well to remove nonadherent cells. The lid was then placed into a 96-well plate that contained varying concentrations of antimicrobial with 200 μL per well. The plate was incubated for 24 hours at 37° C. after which time 100 μL of broth were plated on TSA. TSA plates were incubated 24 hours at 37° C. and the number of CFU counted to calculate the CFU/peg. […]

L-929 cells (ATCC CCL-1) = test: Minimal Essential Media (MEM) Elution cytotoxicity test; format: cell-based; settings: Table 9A
Procedure, shortened: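 L-929 cells (ATCC CCL-1) were seeded in multiwell plates and grown to roughly 80% confluence. Test article dilutions (1:2, 1:4, 1:8, 1:16) and control extracts were applied in triplicate and incubated 48±3 hours at 37±1° C. in 5±1% CO2. Wells were scored microscopically for morphological cytotoxicity on a 0–4 scale and averaged; Pass required grade not greater than 2 per USP <87>.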

biofilms of MRSA = settings: understanding of the inventors; no own test described; cited from earlier work
biofilm formation = settings: study by Losick and co-workers (Kolodkin-Gal et al., Cell 149 (2012)); cited from earlier work

MIC (P. aeruginosa biofilms [1]): 2000 µg/mL (≈ 4280 µM)
MIC (P. aeruginosa): 2 µg/mL (≈ 4.28 µM)
MIC (P. aeruginosa biofilms [2]): 100 µg/mL (≈ 214 µM)
SMILES: NC[C@H]1O[C@H](O[C@H]2[C@H](O)[C@@H](O[C@H]3O[C@H](CO)[C@@H](O)[C@H](N)[C@H]3O)[C@H](N)C[C@@H]2N)[C@H](N)C[C@@H]1O [Tobramycin, tobramycin, reference compound]

SMILES: O=CCCCC=O [glutaraldehyde, Glutaraldehyde, reference compound]
Results Pass/Fail (L-929 cells (ATCC CCL-1); 3.125 μg/mL): Pass (receives a passing score (Pass) if the reactivity grade is not greater than grade 2 or a mild reactivity)
Results Pass/Fail (L-929 cells (ATCC CCL-1); 6.25 μg/mL): Fail (a numerical grade greater than 2 is considered a cytotoxic effect, or a failing score (Fail))
Results Pass/Fail (L-929 cells (ATCC CCL-1); 12.5 μg/mL): Fail (a numerical grade greater than 2 is considered a cytotoxic effect, or a failing score (Fail))
Results Pass/Fail (L-929 cells (ATCC CCL-1); 25 μg/mL): Fail (a numerical grade greater than 2 is considered a cytotoxic effect, or a failing score (Fail))
Results Pass/Fail (L-929 cells (ATCC CCL-1); 1.563 (unit not given)): Pass (receives a passing score (Pass) if the reactivity grade is not greater than grade 2 or a mild reactivity)
biofilm dispersal effect (comparison) (biofilms of MRSA): not seen

SMILES: NCCCNCCCN [norspermidine, N-(3-aminopropyl)propane-1,3-diamine]
concentration inhibiting biofilm formation (biofilm formation): 25 µM

SMILES: NCCCCNCCCN [spermidine]
concentration at which active (biofilm formation) (biofilm formation): ~1 mM
